Results published in patent US20030165853A1, “Antisense imaging of gene expression of the brain in vivo” (The Regents of the University of California Office of …, priority 2000, published 2003).

How the values were obtained:
luciferase mRNA [1] = test: Film autoradiography in rats bearing C6-790 brain tumors; assay type: in vivo, rat; conditions: 100 μCi i.v., brain removed at 2 h, C6-790 gliomas in Fischer rats
Experimental: Fourteen days after implantation of C6-790 cells, the rats were anesthetized with ketamine and xylazine for i.v. injection of brain imaging agents, as described previously (Kurihara et al. (1999) Bioconjugate Chem. 10: 502-511). […] In these studies, each rat received 0.2 nmol of PNA and 40 μg (0.2 nmol) of OX26/SA. Each rat was also administered 20 mg of L-tyrosine and 2 mg of sodium iodide i.p. 15 min before the study to block brain uptake of radiolabeled metabolites such as [^125I]tyrosine or iodide. […]

C6-790 cells = test: Uptake of [125I]PNA tracers in cultured C6-790 cells; assay type: cell-based, rat; conditions: 2-24 h incubation, TCA-precipitable cellular fraction
Experimental: (§1) The uptake of ^125I-labeled antirev or antiluciferase PNA was investigated in C6-790 and C6 cells in the presence or absence of OX26/SA. Cells were grown in 24 well dishes and incubated with 5 μCi/ml (12 nM) [^125I]PNA with and without OX26/SA (1:1 molar ratio) for 2, 4, 6, or 24 h. The monolayers were then washed 3 times in 2.5 ml cold PBS (10 mM phosphate buffer, pH 7.2/150 mM NaCl) and lysed with 250 μl reporter lysis buffer (Promega), as previously described (Boado and Pardridge (1998) Mol. Brain Res. 59: 109-113). Aliquots of samples (100 μl) and standards (10 μl) were precipitated with TCA, and the percent of medium PNA that was taken up into the TCA-precipitable cellular fraction was measured and expressed either as nanograms PNA per milligram protein or percentage uptake per milligram protein. Twenty-microliter lysate aliquots were also resolved by SDS in a 12% gel. Gels were fixed in 50% MeOH and 10% acetic acid solution for 30 min, incubated in 7% MeOH, 7% acetic acid and 1% glycerol for 5 min, and dried before autoradiography with Kodak BioMax film and intensifying screens. For the pulse-chase study, either control C6 or C6-790 cells were incubated as described above with 10 μCi/ml (24 nM) [^125I]antiluciferase PNA conjugated to OX26SA for 24 h. […] TCA-precipitable cellular radioactivity was then measured at 0, 2, 6, or 24 h of incubation.

C6 cells = test: Uptake of [125I]PNA tracers in cultured C6 cells; assay type: cell-based, rat; conditions: 2-24 h incubation, TCA-precipitable cellular fraction
Experimental: as §1

luciferase mRNA [2] = test: Luciferase RNase protection assay; assay type: binding, firefly; conditions: RNase A/T1 protection
Experimental: These methods were identical to those described previously (Pardridge et al. (1995) Proc. Natl. Acad. Sci., USA, 92: 5592-5596). The luciferase RNA was prepared with a luciferase transcription plasmid, designated clone 760, which has been described previously (Tsukamoto et al. (1997) J. Neurochem. 68: 2587-2592). The sense RNA was synthesized with T7 RNA polymerase after linearization of the plasmid with EcoRI. The transcribed RNA was radiolabeled with [^32Pα]ATP, and the correct size of the radiolabeled transcribed sense RNA was determined by agarose/formaldehyde gel electrophoresis followed by film autoradiography. For the RNase protection assay, 0.5 pmol of biotinylated luciferase PNA with or without conjugation to 10 pmol of OX26/SA was added to 10 5 cpm of ^32P-labeled sense luciferase RNA (8 fmol) in 3 μl buffer (50 mM NaCl/5 mM Tris, pH 8/0.5 mM EDTA) and annealed for 30 min at 56° C. Then 15 units of RNase T1 and 0.4 units of RNase A were added to samples in […] of RNase digestion buffer m (Ambion, Austin, Tex.). RNA fragments were analyzed by 7 M urea/20% PAGE and autoradiography, as described previously (Pardridge et al. (1995) Proc. Natl. Acad. Sci., USA, 92: 5592-5596). Labeled RNA and PNA were heat denatured for 2 min at 95° C. and then incubated on ice for 2 min immediately before the experiment or conjugation to OX26/SA.

[3] = rat, in vivo, iv
Experimental: Either the unconjugated anti-luciferase PNA or the anti-luciferase PNA conjugated to OX26/SA was injected intravenously into ketamine/xylazine anesthetized adult male Sprague-Dawley rats (270-300 g) by using methods described previously (10). The dose of radioactivity in these experiments was 5 μCi/rat of PNA (0.02 nmol) conjugated to 20 μg/rat of OX26/SA (0.1 nmol).

HD mRNA = test: HD RNase protection assay; assay type: binding, human; conditions: RNase T1/A digestion, PAGE autoradiography
Experimental: The sense RNA was synthesized with T3 RNA polymerase following linearization of the plasmid with EcoRI. The transcribed RNA was radiolabeled with [^32Pα]ATP to a specific activity of 0.22 μCi/pmol, as previously described (Boado and Pardridge (1994) Bioconj. Chem., 6: 406-410). For the RNAse protection assay, 0.6 pmol of biotinylated HD-PNA or biotinylated luciferase-PNA, with or without conjugation to 6.4 pmol of MAb-SA, was added to 10^5 CPM of [^32P]-labeled sense HD RNA (0.2 pmol) in 3 μl buffer (80 mM NaCl, 7 mM phosphate buffer, pH=7.5, 0.1% BSA), and annealed for 30 minutes at 42° C. Then 20 units RNAse Ti and 2.5 μg RNAse A were added to the samples in 17 μl of RNAse digestion buffer (0.3 M NaCl, 10 mM TRIS pH=7.5, 4 mM EDTA, 0.02% tRNA, 0.02% BSA) and incubated for 30 min at 37° C. RNA fragments were analyzed by 7 M urea/20% polyacrylamide gel electrophoresis following by autoradiography as described by Pardridge et al. (1995) Proc. Natl. Acad. Sci., USA, 92:5592-5596. Labeled RNA and PNAs were heat denatured for 2 minutes at 95° C. and then incubated on ice for 2 minutes immediately before the experiment or conjugation to MAb-SA.

C6 experimental tumors = test: Film autoradiography in rats bearing control C6 tumors not transfected with the luciferase transgene; assay type: in vivo, rat; conditions: 100 μCi i.v., brain removed at 2 h
Experimental: The C6-790 cells were implanted in the caudate-putamen nucleus of male CD Fischer 344 rats (Harlan Breeders, Indianapolis, Ind.), weighing 250-275 g under stereotaxic guidance, as described previously (Kurihara et al. (1999) Bioconjugate Chem. 10: 502-511). The animals were examined 14 days later. To confirm expression of the luciferase transgene in the tumor in vivo, tumor extracts were prepared in Promega lysis buffer, and luciferase enzyme activity was measured with luciferin as substrate (Promega) by using a Berthold (Nashua, N.H.) luminometer, as described previously (Boado and Pardridge (1998) Mol. Brain Res. 59: 109-113). A luciferase standard curve was also assayed, and the enzyme activity was expressed as picograms of luciferase equivalent per milligram of tissue protein. The C6-790 cells were grown in tissue culture as described previously (Id.), and these cells were also extracted in Promega lysis buffer for measurement of luciferase activity in the cells grown in tissue culture before implantation in brain. Control experiments were performed with C6 cells described previously (13), and these cells were used to develop brain tumors exactly as described above, except these tumor cells were not transfected with the luciferase transgene.
The brain scans and autopsy stains for three different groups of adult Fischer rats bearing the C6-790 gliomas are shown in FIG. 5. […]

[4] = target: rat transferrin receptor (rat) (UniProt Q99376); test: cell-based or functional assay
Sequence of rat transferrin receptor (rat) (Q99376 whole entry): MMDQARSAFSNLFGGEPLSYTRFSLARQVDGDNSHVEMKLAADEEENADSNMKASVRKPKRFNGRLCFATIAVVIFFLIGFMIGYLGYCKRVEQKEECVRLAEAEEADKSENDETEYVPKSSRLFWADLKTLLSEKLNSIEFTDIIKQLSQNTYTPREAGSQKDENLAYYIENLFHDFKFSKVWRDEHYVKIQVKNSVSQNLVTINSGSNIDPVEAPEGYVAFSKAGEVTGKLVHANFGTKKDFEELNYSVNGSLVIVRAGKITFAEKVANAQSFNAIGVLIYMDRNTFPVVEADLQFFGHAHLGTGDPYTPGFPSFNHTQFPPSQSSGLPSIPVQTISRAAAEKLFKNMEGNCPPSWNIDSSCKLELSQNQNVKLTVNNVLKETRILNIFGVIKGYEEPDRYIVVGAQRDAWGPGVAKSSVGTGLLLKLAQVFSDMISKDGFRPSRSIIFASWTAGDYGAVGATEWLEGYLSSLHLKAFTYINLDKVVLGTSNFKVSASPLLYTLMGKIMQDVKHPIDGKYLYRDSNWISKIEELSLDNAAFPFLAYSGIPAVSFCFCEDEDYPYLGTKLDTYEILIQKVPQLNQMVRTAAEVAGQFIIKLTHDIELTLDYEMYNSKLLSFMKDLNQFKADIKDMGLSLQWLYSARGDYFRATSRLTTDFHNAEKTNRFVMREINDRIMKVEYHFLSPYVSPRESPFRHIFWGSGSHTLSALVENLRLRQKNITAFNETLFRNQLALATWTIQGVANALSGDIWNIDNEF

Substance	imaging of luciferase gene expression in brain tumor (luciferase mRNA [1])	uptake by C6-790 cells (C6-790 cells)	uptake by C6 cells (C6 cells)	hybridization to luciferase sense RNA (protection of 16 mer RNA fragments) (luciferase mRNA [2])	plasma clearance [3]	hybridization to HD mRNA (RNase protected fragment) (HD mRNA)	radioactivity in control C6 tumors (C6 experimental tumors)	uptake of [125I]PNA conjugate by cells after 24 h of incubation (ng PNA per milligram of protein) [4]
antiluciferase PNA: biotinylated 16-mer peptide nucleic acid antisense to luciferase mRNA (CTTCCATTTTACCAAC), linkers, Tyr-Lys, amidated carboxy terminus; radioiodinated (all peptide nucleic acid (PNA); biotinylated, linkers, Tyr-Lys, amidated carboxy terminus, radioiodinated)	no imaging of either normal brain or brain tumor	negligible	negligible	hybridized to the luciferase sense RNA	7.2 ± 0.4 mL/min/kg	did not protect the RNA from nuclease digestion	no measurable radioactivity was detectable	–
conjugate of the OX26 mAb (mouse monoclonal antibody to the rat transferrin receptor) and recombinant streptavidin (from UniProt P22629 37-163)	–	–	–	–	–	–	–	10
antirev PNA: control PNA antisense to the rev gene of HIV, sequence CTCCGCTTCTTCCTGCCA (all peptide nucleic acid (PNA); 125I-radiolabelled, conjugated to streptavidin-OX26 antibody, attachment not given here, further chemistry not fully specified) [reference compound]	–	negligible	negligible	–	–	–	–	–
